Test results from article PMC6990405, “Synthesis and Structure–Activity relationship of 1-(5-isoquinolinesulfonyl)piperazine analogues as inhibitors of Mycobacterium tuberculosis IMPDH” (European Journal of Medicinal Chemistry, 2019).
Values after ≈ are worked out from the molar mass of the structure shown.

Assays:
[1] = tested on: M. tuberculosis SRMV2.6 (IMPDH Tyr487Cys); type: cell-based, Mycobacterium tuberculosis
[2] = tested on: M. tuberculosis guaB2 cKD mutant; type: cell-based; conditions: increase in potency against guaB2 cKD mutant upon guaB2 silencing

Row | Structure (SMILES) | MIC90 against SRMV2.6 [1] [µM] | Hyper-sensitivity to guaB2 cKD [2]
1 | O=C(C1CCCCC1)N1CCN(S(=O)(=O)c2cccc3cnccc23)CC1 [Compound 1, Cyclohexyl[4-(isoquinoline-5-sulfonyl)piperazin-1-yl]methanone] | 250 (≈ 96.9 µg/mL) | ∼32-fold
2 | CC1CCCCC1C(=O)N1CCN(S(=O)(=O)c2cccc3cnccc23)CC1 (stereo not drawn) [Compound 13, [4-(isoquinoline-5-sulfonyl)piperazin-1-yl](2-methylcyclohexyl)methanone] | >250 | 16–32-fold
3 | O=C(C1CCCCCC1)N1CCN(S(=O)(=O)c2cccc3cnccc23)CC1 [Compound 14, Cycloheptyl[4-(isoquinoline-5-sulfonyl)piperazin-1-yl]methanone] | >250 | 16-fold
4 | O=C(c1cccc([N+](=O)[O-])c1)N1CCN(S(=O)(=O)c2cccc3cnccc23)CC1 [Compound 18, [4-(isoquinoline-5-sulfonyl)piperazin-1-yl](3-nitrophenyl)methanone] | 50 (≈ 21.3 µg/mL) | 8-fold
5 | O=C(CC1CCCCC1)N1CCN(S(=O)(=O)c2cccc3cnccc23)CC1 [Compound 22, 2-Cyclohexyl-1-(4-(isoquinolin-5-ylsulfonyl)piperazin-1-yl)ethan-1-one] | >250 | 16-fold
6 | O=C(Nc1ccc2c(c1)OCO2)N1CCCN(S(=O)(=O)c2cccc3cnccc23)CC1 [Compound 44, 4-(isoquinoline-5-sulfonyl)-N-(2H-1,3-benzodioxol-5-yl)-1,4-diazepane-1-carboxamide] | >100 | 8–16-fold
7 | CC1CN(S(=O)(=O)c2cccc3cnccc23)CCN1C(=O)Nc1ccc2c(c1)OCO2 (stereo not drawn) [Compound 45, N-(benzo[d][1,3]dioxol-5-yl)-4-(isoquinolin-5-ylsulfonyl)-2-methylpiperazine-1-carboxamide] | >100 | 8–16-fold
8 | O=C(NCc1ccccc1)N1CCN(S(=O)(=O)c2cccc3cnccc23)CC1 [Compound 46, N-benzyl-4-(isoquinolin-5-ylsulfonyl)piperazine-1-carboxamide] | >100 | 8-fold
9 | Cc1ccccc1CNC(=O)N1CCN(S(=O)(=O)c2cccc3cnccc23)CC1 [Compound 48, 4-(isoquinolin-5-ylsulfonyl)-N-(2-methylbenzyl)piperazine-1-carboxamide] | 15.6 (≈ 6.62 µg/mL) | 16–32-fold
